Paper PMC11032351, “Epigenetic modulation through BET bromodomain inhibitors as a novel therapeutic strategy for progranulin-deficient frontotemporal dementia” (Scientific Reports, 2024)

Key:
GRN mRNA = experiment: qPCR of GRN mRNA in human NPCs (enhancer screen and follow-up); assay type: cell-based; details: 24 h; for increase of GRN mRNA: NPCs
Description: (§1) All compounds were purchased from commercial vendors. All compounds were made at 1000 × stocks in DMSO (Sigma Aldrich #D2438), except for sodium valproate, which was dissolved in ddH2O. NPCs and neurons were generated and maintained as described above. For treatment, the stock compounds were diluted 1:1000 in NPC media (final DMSO concentration 0.1%), which was then applied to confluent NPCs or 18-day differentiated neurons derived from confluent NPC cultures for indicated time periods.
RNA was generated from each well of a 6-well treated plate of NPCs or neurons. First, media from each well was aspirated, and washed with 1 mL of dPBS. Wells were then lysed with 1 mL TRIzol Reagent (ThermoFisher #11,596,026). Wells were then incubated at room temperature for 5 min, and then RNA was extracted using the DirectZol RNA MiniPrep Kit (Zymo Research #R2052). RNA was stored at − 80 °C until further use. cDNA was generated using the High-Capacity cDNA synthesis Kit with RNase inhibitor (ThermoFisher #4,368,814) using 1000–1200 ng RNA per reaction. cDNA was either used immediately or stored at -20 °C until use, where it was then diluted 1:4 with DNase/RNase-free water (Invitrogen #10,977–015).
qPCR was conducted using the Roche 480 Light Cycler in a 384-well plate. To each well was added 5 μL of TaqMan 2X Gene Expression Master Mix (ThermoFisher #4,369,510), 0.5 μL of 20X TaqMan primer probe (ThermoFisher, GRN: Hs00963707_g1, GAPDH: Cat.#432924E), 0.5 μL of DNase/RNase-free H2O, and 4 μL of above diluted cDNA. Results were normalized to GAPDH, and replicate mean values and standard error of the mean are reported.

PGRN protein levels [1] = experiment: Immunoblotting of PGRN protein in human NPCs; assay type: cell-based; details: 24 h, immunoblot
Description: as §1
(§2) Cell pellets were collected from each well of a 6-well plate (or lysed directly in-well for 24-well plates), lysed in radio immunoprecipitation assay (RIPA) buffer (Boston BioProducts #BP-115) with EDTA-free protease inhibitors (Sigma Aldrich #4,693,159,001) and a phosphatase inhibitor cocktail (Sigma Aldrich #P5726) and nutated at 4 °C for 15–30 min. Lysates were clarified via centrifugation at > 14,000 rcf at 4 °C for > 10 min and the supernatants were collected. Protein quantification was done with the Pierce bicinchoninic assay (BCA) (Thermo Fisher #23,227). Lysates were then stored between − 20 and − 80 °C until ready for use. […]
(§3) In probing for PGRN, proteins were separated on NuPAGE 4–12% Bis–Tris gels (ThermoFisher #NP0335BOX) in MOPS SDS Running buffer (ThermoFisher #NP0001). […] Protein quantification was done with ImageJ and normalized to GAPDH.

PGRN protein levels [2] = experiment: Immunoblotting of PGRN protein in 18-day differentiated neurons; assay type: cell-based, human; details: 24 hours, immunoblot
Description: NPCs were seeded at 0.5 × 10^6 cells per well in a poly-ornithine/laminin single coated 6-well plate in 2 mL NPC media with above growth factors. Cells were allowed to incubate at 37 °C for 48–72 h to grow to confluency. After reaching confluency, the media was aspirated, and cells were incubated in NPC media without growth factors for the indicated timeframes, with media changes every 3–4 days.
All compounds were purchased from commercial vendors. All compounds were made at 1000 × stocks in DMSO (Sigma Aldrich #D2438), except for sodium valproate, which was dissolved in ddH2O. NPCs and neurons were generated and maintained as described above. […]
as §2, with “Lysates were clarified via centrifugation at > 14,000 rcf at 4 °C for > 10 min and the supernatants were collected.” left out
as §3

PGRN protein levels [3] = experiment: PGRN quantification (Jess) in GRN R493X/+ NPCs; assay type: cell-based, human; details: 24 h
Description: (§4) PGRN capillary gel electrophoresis experiments were performed using Jess (Bio-Techne) and data were processed and analyzed using Compass for Simple Western software (version 6.0). Runs were conducted using EZ Standard Pack 1 12–230 kDa (Bio-Techne PS-ST01EZ-8), 12–230 kDa pre-filled plates (PS-PP03), 12–230 kDa separation module (SMW004), anti-rabbit HRP detection (DM-001), RePlex (RP-001), and total protein detection modules (DM-TP01, biotin labeling reagent 042-973) according to the manufacturer’s instructions, and with anti-PGRN primary (Abcam ab208777) diluted 1:50 in milk-free antibody dilution buffer (043–524). The following run settings were used for each experiment: separation time: 25 min, separation voltage: 375 V, RePlex purge time: 30 min, biotin labeling time: 30 min, antibody diluent time: 5 min, primary antibody time: 30 min, secondary antibody time: 30 min, total protein HRP time: 30 min. All intensity quantifications are normalized to the total protein assay quantification unless otherwise indicated.
(§5) For GRN^R493^X/+ NPCs, cells were grown to confluency in 6-well plates according to the above NPC culturing procedure. To each well was directly added 2 µL of 100 µM panobinostat, […], or DMSO only to produce final in-well concentrations of 100 nM or 1 µM, respectively (0.1% DMSO final concentration). […]

PGRN protein levels [4] = experiment: PGRN quantification (Jess) in GRN R493X/+ 14-day differentiated neurons; assay type: cell-based, human; details: GRN R493X/+ 14-day growth factor differentiated neurons, 24 h
Description: as §4, §5

PGRN-Luc = experiment: HMC3 PGRN-luciferase reporter assay; assay type: cell-based, human; details: HMC3 PGRN-Luc cells, 20 h
Description: HMC3 PGRN-Luc cells were trypsinized from confluent T-75 flasks and re-suspended in HMC-3 media at 150,000–200,000 cells/mL. 30 µL of cell suspension was then seeded onto each well of black, 384-well clear-bottom plates (Corning 3712) using the Multidrop Combi (Thermo Fisher). Cells were allowed to adhere to plates in the incubator at 37 °C/5% CO2 for 6–8 h. After 6–8 h, compounds were added to each well using the D300e (Tecan) compound dispenser, and all wells were DMSO-normalized (0.3%). Cells were allowed to incubate with compounds for indicated timeframes.
Plates were removed from the incubator and allowed to cool to RT. 15 µL of media was removed from each well using a multichannel pipette and added to separate Corning 3712 plates for a read of “secreted” PGRN. To both the media-containing plates as well as the cell-containing plates (with 15 µL media remaining) is then added 15 µL of active luminescence reagent (Thermo 18,636) which was generated according to manufacturer’s instructions. Plates were allowed to nutate at RT for 15 min prior to reading using the EnVision (PerkinElmer). For calculation of the internal PGRN-Luc signal, the secreted signal (15 µL media) was subtracted from the signal of the cell-containing plates (with 15 µL media remaining). For “total” PGRN-Luc signal, a sample of media was not aliquoted into a separate plate, and instead, 30 µL of active luminescence reagent was added directly to each well.
For the mivebresib and panobinostat time-course experiment, the above procedure was followed, with the exception that cells were seeded at 66,600 cells/mL in 30 µL media, and allowed to grow overnight prior to compound addition for the indicated timeframes.

## Cc1sc2c(c1C)C(c1ccc(Cl)cc1)=N[C@@H](CC(=O)OC(C)(C)C)c1nnc(C)n1-2 [(+)-JQ1]
GRN mRNA; 1 µM
  increase of GRN mRNA: ~ 2.5 fold
PGRN protein levels [1]; 1 µM
  PGRN protein levels: substantially increased PGRN protein levels
PGRN protein levels [2]; 1 µM
  PGRN expression: can enhance PGRN expression

## COc1ccccc1S(=O)(=O)Nc1ccc2c(c1)CN(C)C(=O)N2 [PFI-1]
GRN mRNA; 10 µM
  increase of GRN mRNA: ~ 2.5 fold
PGRN protein levels [1]; 10 µM
  PGRN protein levels: substantially increased PGRN protein levels
PGRN protein levels [2]; 10 µM
  PGRN expression: can enhance PGRN expression

## Cc1[nH]c2ccccc2c1CCNCc1ccc(/C=C/C(=O)NO)cc1 [Panobinostat, panobinostat]
GRN mRNA; human NPCs, dose 1 µM, relative to DMSO
  GRN Fold-change (Norm. to GAPDH) ± Std. Error: 3.08 ± 0.35
PGRN protein levels [3]
  PGRN protein levels: rescues PGRN haploinsufficiency
PGRN protein levels [4]
  PGRN protein levels: rescues PGRN haploinsufficiency
PGRN-Luc
  enhancement of internal PGRN-Luc signal: able to enhance both internal and secreted PGRN at sub-µM concentrations
  enhancement of secreted PGRN-Luc signal: able to enhance both internal and secreted PGRN at sub-µM concentrations
